In patent publication US9556201B2, “Bicyclic pyridines and analogs as sirtuin modulators” (GLAXOSMITHKLINE LLC, priority 2009, dated 2017):

Columns and labels:
[1] = target: T1, SIRT1 (Homo sapiens, UniProt Q96EB6); test: Mass spectrometry based assay to identify modulators of SIRT1 activity (deacetylation of p53-based acetylated peptide substrate); format: biochemical; conditions: for Emax: 25 min, SIRT1 activation, read-out: % FOLD ACT. (percent maximum fold activation)
T1 sequence (Q96EB6 1-747): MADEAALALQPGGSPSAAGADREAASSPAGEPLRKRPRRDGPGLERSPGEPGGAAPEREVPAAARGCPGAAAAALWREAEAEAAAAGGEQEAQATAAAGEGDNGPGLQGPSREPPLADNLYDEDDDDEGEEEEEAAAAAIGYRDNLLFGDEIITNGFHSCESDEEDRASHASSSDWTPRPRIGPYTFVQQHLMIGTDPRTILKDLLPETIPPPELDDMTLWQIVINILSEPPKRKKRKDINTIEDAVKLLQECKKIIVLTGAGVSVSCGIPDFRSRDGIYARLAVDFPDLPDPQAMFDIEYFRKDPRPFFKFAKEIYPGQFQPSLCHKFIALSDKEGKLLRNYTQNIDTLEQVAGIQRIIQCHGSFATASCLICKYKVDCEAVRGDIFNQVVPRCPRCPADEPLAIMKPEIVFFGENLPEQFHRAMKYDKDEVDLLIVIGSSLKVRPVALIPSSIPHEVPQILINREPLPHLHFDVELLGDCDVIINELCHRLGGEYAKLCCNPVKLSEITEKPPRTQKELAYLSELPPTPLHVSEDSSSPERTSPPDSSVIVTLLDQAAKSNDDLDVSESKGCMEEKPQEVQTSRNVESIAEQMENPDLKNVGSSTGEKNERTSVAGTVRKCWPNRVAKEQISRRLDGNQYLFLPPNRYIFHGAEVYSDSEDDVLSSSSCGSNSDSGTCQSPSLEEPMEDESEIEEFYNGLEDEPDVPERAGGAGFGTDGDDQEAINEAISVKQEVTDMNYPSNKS
Method in brief: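 His-tagged human SIRT1 (10 nM, E. coli) incubated 25 min at 25 °C with […] p53-derived acetylated 5TMR peptide and 120 μM βNAD+ in pH 8 Tris-acetate buffer, then formic acid-stopped. Mass spectrometry quantifies acetylated vs deacetylated peptide; nicotinamide and DMSO controls.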

[2] = tested on: TNF; test: TNF IC50 (column of Table 1; method not in the text shown); format: cell-based

Row | Structure (SMILES) | EC1.5 (concentration giving 1.5-fold activation) [1] | Emax [1] | IC50 [2]
1 | O=C(Nc1cnc(OC[C@H](O)CO)cn1)N1CCCOc2ccc(-c3cccc(Cl)c3)nc21 [Compound 878] | < 1000 nM | > 200% | < 20 µM
2 | O=C(Nc1ccc2nccn2c1)N1CCCOc2ccc(-c3cccc(Cl)c3)nc21 [Compound 880] | < 1000 nM | > 200% | < 20 µM
3 | O=C(Nc1ccc2nccnc2c1)N1CCCOc2ccc(-c3cccc(Cl)c3)nc21 [Compound 881] | < 1000 nM | > 200% | ≥ 20 µM
4 | Cn1cc2ccc(NC(=O)N3CCCOc4ccc(-c5cccc(Cl)c5)nc43)cc2n1 [Compound 883] | < 1000 nM | > 200% | < 20 µM

Further lines, results first:

Row | EC1.5 (concentration giving 1.5-fold activation) [1] | Emax [1] | IC50 [2] | Structure (SMILES)
5 | < 1000 nM | > 200% | ≥ 20 µM | COc1cc(NC(=O)N2CCCOc3ccc(-c4cccc(Cl)c4)nc32)ccn1 [Compound 882]
6 | 1000 to 25000 nM | > 200% | ≥ 20 µM | O=C(Nc1cccnc1)N1CCCc2ccc(-c3cccnc3)nc21 [Compound 886]
7 | < 1000 nM | > 200% | ≥ 20 µM | O=C(Nc1cccnc1)N1CCOc2ccc(-c3cccc(C(F)(F)F)c3)nc21 [Compound 887]
